Experimental findings from PubChem BioAssay (NCI) are described below.

What is called GI50 is the concentration giving 50% growth inhibition. A word on the TGI: it is the concentration at which net growth stops. High values mean less potent growth arrest, low ones more potent growth arrest.

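Method: 48-hour compound exposure of cells in 96-well plates, five concentrations, linear interpolation of endpoints. The concentration for 50% growth inhibition is given as GI50. TGI is the concentration that stops growth completely.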

Experiment in all cases: DTP human tumour cell line panel, 48 h
Assay [1] concerns OVCAR-4 ovarian.
For assay [2], the system named is SF-268 CNS.
Assay [3] deals with HOP-92 NSCLC.
The subject of assay [4] is 786-0 renal.
Assay [5] relates to MCF7 breast.
Assay [6] concerns K-562 leukemia.
Assay [7] has as its system SF-539 CNS.
In assay [8] the test system is OVCAR-3 ovarian.

With `Nc1ccccc1NC(=O)c1ccc(CN2CCC/C(=C\c3cccc(Cl)c3)C2=O)cc1`, the GI50 in assay [1] is 1.49 µM; in assay [2], 1.41 µM; in assay [3] it was 1.76 µM; in assay [4] it was 0.366 µM; in assay [5] it was 0.0332 µM; in assay [6], 0.0399 µM. In addition, the GI50 in assay [7] was 0.695 µM; in assay [8] it was 0.406 µM. In addition, the concentration for total growth inhibition (TGI) was over 100 µM in assay [1]; 6.74 µM in assay [2]; 16.2 µM in assay [3]; 2.17 µM in assay [4]; 26.6 µM in assay [5]; over 100 µM in assay [6]. The TGI in assay [7] turned out to be 5.33 µM; in assay [8] it was 7.7 µM.
For the compound `Oc1cc(O)c2c(=S)cc(-c3ccc(Cl)cc3)oc2c1`, the concentration for 50% growth inhibition (GI50) in assay [1] was 0.379 µM; in assay [2], 3.23 µM; in assay [3], 1.62 µM; in assay [4], 7.12 µM; in assay [5], 0.111 µM; in assay [6], 3.48 µM. The GI50 was 3.31 µM in assay [7] and 1.52 µM in assay [8]. Also, the TGI in assay [1] was over 31.8 µM; in assay [2] it was 21.3 µM; in assay [3] it was 5.11 µM; in assay [4], 22.9 µM; in assay [5], 11.4 µM; in assay [6], 22.3 µM. The total growth inhibition concentration (TGI) in assay [7] was determined as 17.1 µM; in assay [8], 8.94 µM.
On to `CC1(C)C(=S)C(C)(C)C1=S`, for which the TGI in assay [1], in assay [2], in assay [4], in assay [5], in assay [6] and in assay [7] was over 100 µM in each case. This compound yielded a TGI in assay [8] of over 100 µM.
`CC1=C([Se]CC(OC(=O)[C@@H](CO)NC(=O)OC(C)(C)C)C(=O)NC(C)(C)C)C(=O)c2ccccc2C1=O` (some centres not stated): the GI50 was 1.23 µM in assay [1]; 1.89 µM in assay [2]; 1.88 µM in assay [3]; 1.95 µM in assay [4]; 1.75 µM in assay [5]; 1.57 µM in assay [7]. In addition, the GI50 in assay [8] is 1.8 µM. Moreover, the TGI in assay [1] was determined as 2.49 µM; in assay [2] it was 3.34 µM; in assay [3] it was 3.43 µM; in assay [4], 3.39 µM; in assay [5] it was 3.97 µM; in assay [7], 3.05 µM. Besides, the TGI in assay [8] turned out to be 3.19 µM.
As for `C[C@H]1CC[C@@H]2[C@@H](C)[C@H]3[C@H](C[C@H]4[C@@H]5CC=C6C[C@@H](O)CC[C@]6(C)[C@H]5C[C@H](O)[C@]34C)N2C1`, the TGI in assay [1], in assay [2], in assay [3], in assay [4], in assay [5] and in assay [6] was over 100 µM in each case. Also, the concentration for total growth inhibition (TGI) in assay [7] and in assay [8] was over 100 µM throughout.
Turning to `CCc1c(Cl)nc(Cl)nc1Cl`, the TGI in assay [2] is 2.03 µM; in assay [3], 3 µM; in assay [4], 3.71 µM; in assay [5], 0.258 µM; in assay [6], over 32 µM; in assay [7] it was 1.77 µM. Further, the TGI in assay [8] is 0.374 µM.
Take `COc1cccc(C2C3=C(COC3=O)N(CCO)c3cc4c(cc32)OCCO4)c1` (configuration not stated): the GI50 is 0.472 µM in assay [1]; 0.355 µM in assay [2]; 0.0348 µM in assay [3]; 0.198 µM in assay [4]; 0.0396 µM in assay [5]; 0.0827 µM in assay [6]. Also, the figures for the GI50 in assay [7] and in assay [8] were 0.124 µM and 0.0878 µM, respectively. In addition, the TGI in assay [1] was over 50 µM; in assay [2] it was over 50 µM; in assay [3] it was 2.89 µM; in assay [4], over 50 µM; in assay [5], over 50 µM; in assay [6] it was over 50 µM. This compound also yielded a concentration for total growth inhibition (TGI) in assay [8] of 0.254 µM.
For `Cc1nc(/N=C(\N)NC(=O)Nc2ccccc2Cl)sc1C`, the GI50 in assay [2] was 1.35 µM; in assay [3], 1.54 µM; in assay [4], 0.639 µM; in assay [5], 0.359 µM; in assay [6], 0.0861 µM; in assay [7], 0.413 µM. The 50% growth inhibitory concentration (GI50) in assay [8] was 0.299 µM. Further, the concentration for total growth inhibition (TGI) in assay [2] is over 100 µM; in assay [3] it was 15.8 µM; in assay [4] it was 3.25 µM; in assay [5] it was over 100 µM; in assay [6], over 100 µM; in assay [7] it was 8.34 µM. The compound further registered a TGI in assay [8] of 1.28 µM.
`CN(C)CCN=Cc1c2ccccc2c(=O)n2c1oc1ccccc12`: the GI50 in assay [1] was 18.4 µM; in assay [2], 5.56 µM; in assay [3] it was 12.3 µM; in assay [4], 11.6 µM; in assay [6], 11 µM; in assay [7], 2.96 µM. The GI50 in assay [8] is 11.7 µM. Besides, the TGI in assay [1] was 51.6 µM; in assay [2], 20 µM; in assay [3], 44.1 µM; in assay [4], 25.3 µM; in assay [6], over 100 µM; in assay [7], 8.81 µM. The total growth inhibition concentration (TGI) in assay [8] came to 24 µM.
As to `C=C1C(=O)O[C@@H]2C[C@@H]1CC[C@@]1(C)O[C@@H]1CC[C@@]1(C)O[C@@H]1CC[C@@]2(C)O`, the GI50 is 12.3 µM in assay [1]; 40.5 µM in assay [2]; 19.2 µM in assay [4]; 55.2 µM in assay [5]; over 100 µM in assay [6]; 26.7 µM in assay [7]. Besides, the GI50 in assay [8] was 15.7 µM. In addition, the total growth inhibition concentration (TGI) is 34.3 µM in assay [1]; over 100 µM in assay [2]; 42.2 µM in assay [4]; over 100 µM in assay [5]; over 100 µM in assay [6]; 75.9 µM in assay [7]. In assay [8], this compound showed a total growth inhibition concentration (TGI) of 37.3 µM.
For the compound `CC1(C)CC2C=C(C=O)C3(C=O)CC3(C)C2C1` (configuration not stated), the concentration for total growth inhibition (TGI) worked out at 3.22 µM in assay [1]; 6.02 µM in assay [2]; 3.97 µM in assay [3]; 3.13 µM in assay [4]; 5.27 µM in assay [5]; 3.51 µM in assay [7]. In assay [8], this compound gave a concentration for total growth inhibition (TGI) of 2.27 µM.
